Laboratory results reported in ChEMBL document CHEMBL4385639, “1,2,3-Triazole-containing hybrids as leads in medicinal chemistry: A recent overview” (Bioorg Med Chem, 2019).
In brackets after ≈: the same amount, converted by molar mass.

Tests used:
DU-145 = test: Cytotoxicity against human DU145 cells incubated for 48 hrs by MTT assay; format: functional, cell-based; details: DU-145, 48 h
[1] = target: Prostaglandin G/H synthase 2 (Homo sapiens, UniProt P35354); test: Inhibition of human COX2 using arachidonic acid as substrate pretreated for 5 mins followed by substrate addition and measured after 20 mins by colorimetric assay
Chain of Prostaglandin G/H synthase 2 (P35354 whole entry): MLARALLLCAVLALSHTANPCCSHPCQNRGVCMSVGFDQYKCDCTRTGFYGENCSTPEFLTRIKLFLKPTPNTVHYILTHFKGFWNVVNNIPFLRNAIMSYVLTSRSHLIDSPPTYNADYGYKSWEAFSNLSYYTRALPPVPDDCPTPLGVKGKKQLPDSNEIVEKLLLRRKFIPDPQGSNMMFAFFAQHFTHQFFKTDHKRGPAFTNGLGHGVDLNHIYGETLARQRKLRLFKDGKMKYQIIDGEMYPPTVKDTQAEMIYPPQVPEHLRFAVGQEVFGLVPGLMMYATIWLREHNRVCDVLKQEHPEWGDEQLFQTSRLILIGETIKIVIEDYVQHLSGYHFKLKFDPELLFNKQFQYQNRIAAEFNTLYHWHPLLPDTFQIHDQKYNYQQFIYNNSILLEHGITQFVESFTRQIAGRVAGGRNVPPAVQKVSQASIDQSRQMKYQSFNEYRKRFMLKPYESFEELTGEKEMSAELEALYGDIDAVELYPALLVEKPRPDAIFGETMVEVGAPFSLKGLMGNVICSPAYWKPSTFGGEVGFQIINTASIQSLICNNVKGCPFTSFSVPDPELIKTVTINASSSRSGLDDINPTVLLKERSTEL

[2] = Inhibition of soyabean 5-lipoxygenase using arachidonic acid as substrate incubated for 5 mins by spectrophotometric method; set-up: species or system Glycine max
Rattus norvegicus = test: Anti-inflammatory activity against carrageenan-induced paw oedema in Wistar rat assessed as reduction in paw edema at 20 mg/kg administered 30 mins prior to carrageenan challenge measured at 3 hrs post carrageenan challenge by plethysmometric method relative to control; format: functional; set-up: scale not given: the % may be the effect or the level left
[3] = system: Mycobacterium tuberculosis; test: Antitubercular activity against Mycobacterium tuberculosis H37Rv after 7 days by MABA; format: functional; details: 168 h
MCF7 [4] = test: cells; details: Homo sapiens, MCF7, 72 h
Description: Antiproliferative activity against human MCF7 cells incubated for 72 hrs by MTT assay

Escherichia coli [5] = test: Antibacterial activity against Escherichia coli MTCC 1652 after 24 hrs by serial dilution method; format: functional; details: MTCC 1652, 24 h
Candida albicans = test: Antifungal activity against Candida albicans MTCC 183 after 24 hrs by serial dilution method; format: functional; details: MTCC 183, 24 h
[6] = system: Staphylococcus epidermidis; test: Antibacterial activity against Staphylococcus epidermidis MTCC 6880 incubated for 24 hrs by serial dilution method; format: functional; details: MTCC 6880, 24 h
Pseudomonas aeruginosa = test: Antibacterial activity against Pseudomonas aeruginosa MTCC 424 after 24 hrs by serial dilution method; format: functional; details: MTCC 424, 24 h
Bacillus subtilis = test: Antibacterial activity against Bacillus subtilis MTCC 441 after 24 hrs by serial dilution method; format: functional; details: MTCC 441, 24 h
A549 [7] = test: Cytotoxicity against human A549 cells after 48 hrs by MTT assay; format: functional, cell-based; details: A549, 48 h
[8] = target: Serine/threonine-protein kinase PLK1 (Homo sapiens, UniProt P53350); test: Inhibition of PLK1 PBD (unknown origin) using GPMQSpTPLNG-OH as fluorescent probe incubated for 30 mins by fluorescence polarization assay
Chain of Serine/threonine-protein kinase PLK1 (P53350 whole entry): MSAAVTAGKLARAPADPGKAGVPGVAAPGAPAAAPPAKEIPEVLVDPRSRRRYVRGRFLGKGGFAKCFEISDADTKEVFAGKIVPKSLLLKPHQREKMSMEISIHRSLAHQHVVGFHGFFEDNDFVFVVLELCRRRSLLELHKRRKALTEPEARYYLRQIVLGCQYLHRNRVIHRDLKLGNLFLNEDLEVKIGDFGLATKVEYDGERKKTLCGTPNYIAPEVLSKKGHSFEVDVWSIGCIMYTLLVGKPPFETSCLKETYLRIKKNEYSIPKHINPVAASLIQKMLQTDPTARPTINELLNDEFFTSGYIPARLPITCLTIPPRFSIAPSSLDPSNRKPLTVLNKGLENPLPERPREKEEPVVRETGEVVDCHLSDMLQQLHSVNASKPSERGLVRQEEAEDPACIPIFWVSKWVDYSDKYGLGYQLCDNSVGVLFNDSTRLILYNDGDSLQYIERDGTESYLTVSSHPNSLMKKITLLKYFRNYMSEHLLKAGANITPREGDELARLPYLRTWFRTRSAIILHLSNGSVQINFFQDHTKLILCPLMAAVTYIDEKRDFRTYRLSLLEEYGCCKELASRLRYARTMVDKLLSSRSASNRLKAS

HepG2 [9] = test: Potency index, ratio of foretinib IC50 to compound IC50 for antiproliferative activity against human HepG2 cells; format: functional
[10] = target: Hepatocyte growth factor receptor (Homo sapiens, UniProt P08581); test: Inhibition of cMET (unknown origin) using FAM-labeled peptide as substrate pre-incubated for 10 mins followed by substrate addition by mobility shift assay
Chain of Hepatocyte growth factor receptor (P08581 whole entry): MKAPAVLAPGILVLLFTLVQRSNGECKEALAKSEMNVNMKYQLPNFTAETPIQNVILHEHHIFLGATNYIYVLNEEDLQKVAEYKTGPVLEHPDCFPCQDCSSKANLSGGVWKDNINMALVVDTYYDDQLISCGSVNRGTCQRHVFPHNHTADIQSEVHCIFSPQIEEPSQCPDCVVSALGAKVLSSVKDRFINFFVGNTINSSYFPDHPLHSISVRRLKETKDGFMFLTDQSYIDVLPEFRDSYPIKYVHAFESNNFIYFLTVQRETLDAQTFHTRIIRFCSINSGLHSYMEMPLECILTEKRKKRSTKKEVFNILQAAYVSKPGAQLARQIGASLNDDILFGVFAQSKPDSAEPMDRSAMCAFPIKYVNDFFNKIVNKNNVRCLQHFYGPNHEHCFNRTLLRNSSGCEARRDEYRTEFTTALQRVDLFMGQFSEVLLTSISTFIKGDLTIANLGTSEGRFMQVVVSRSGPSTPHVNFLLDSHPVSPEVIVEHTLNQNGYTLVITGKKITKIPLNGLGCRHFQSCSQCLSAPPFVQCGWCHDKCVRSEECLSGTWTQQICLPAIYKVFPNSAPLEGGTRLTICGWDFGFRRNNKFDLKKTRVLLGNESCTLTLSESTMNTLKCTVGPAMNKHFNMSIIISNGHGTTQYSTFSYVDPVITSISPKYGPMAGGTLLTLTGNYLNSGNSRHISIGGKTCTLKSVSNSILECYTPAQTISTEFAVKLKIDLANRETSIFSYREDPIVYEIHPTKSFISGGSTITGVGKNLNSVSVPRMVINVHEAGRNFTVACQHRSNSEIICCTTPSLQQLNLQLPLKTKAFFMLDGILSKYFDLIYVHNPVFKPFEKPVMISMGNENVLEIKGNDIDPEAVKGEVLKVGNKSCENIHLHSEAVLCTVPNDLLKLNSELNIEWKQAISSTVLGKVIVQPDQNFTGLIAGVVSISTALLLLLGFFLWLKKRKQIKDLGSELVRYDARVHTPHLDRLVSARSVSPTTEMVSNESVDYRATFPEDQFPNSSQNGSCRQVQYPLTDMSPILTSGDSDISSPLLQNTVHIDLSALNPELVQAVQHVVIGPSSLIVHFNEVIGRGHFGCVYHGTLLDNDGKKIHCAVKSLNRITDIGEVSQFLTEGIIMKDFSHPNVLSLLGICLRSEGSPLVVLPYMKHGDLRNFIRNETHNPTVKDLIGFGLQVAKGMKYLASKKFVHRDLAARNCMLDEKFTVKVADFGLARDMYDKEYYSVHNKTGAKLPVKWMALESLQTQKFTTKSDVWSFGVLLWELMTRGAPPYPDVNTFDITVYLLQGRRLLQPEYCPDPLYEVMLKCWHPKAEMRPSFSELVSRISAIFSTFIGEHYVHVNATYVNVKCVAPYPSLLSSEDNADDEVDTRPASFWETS

MCF7 [11] = test: Potency index, ratio of foretinib IC50 to compound IC50 for antiproliferative activity against human MCF7 cells; format: functional
HepG2 [12] = test: Cytotoxicity against human HepG2 cells incubated for 72 hrs by MTT assay; format: functional, cell-based; details: HepG2, 72 h
A549 [13] = test: Cytotoxicity against human A549 cells incubated for 72 hrs by MTT assay; format: functional, cell-based; details: A549, 72 h
A549 [14] = test: Potency index, ratio of foretinib IC50 to compound IC50 for antiproliferative activity against human A549 cells; format: functional
[15] = Inhibition of Saccharomyces cerevisiae alpha-glucosidase using p-nitrophenyl-alpha-D-glucopyranoside as substrate preincubated for 10 mins followed by substrate addition and measured after 20 mins by spectrophotometric analysis
U-937 [16] = test: Antiinflammatory activity in human U937 cells assessed as inhibition of LPS-induced TNF-alpha production incubated for 24 hrs by ELISA; format: functional, cell-based; details: U-937, 24 h
U-937 [17] = test: Antiinflammatory activity in human U937 cells assessed as inhibition of LPS-induced TNF-alpha production at 10 uM incubated for 24 hrs by ELISA relative to control; format: functional; details: U-937, 24 h
Cholinesterase [18] = target: Cholinesterase (Homo sapiens, UniProt P06276); test: Inhibition of BChE (unknown origin) using butyrylthiocholine iodide as substrate preincubated for 15 mins followed by substrate addition and measured after 15 mins
Chain of Cholinesterase (Homo sapiens, UniProt P06276) (P06276 whole entry): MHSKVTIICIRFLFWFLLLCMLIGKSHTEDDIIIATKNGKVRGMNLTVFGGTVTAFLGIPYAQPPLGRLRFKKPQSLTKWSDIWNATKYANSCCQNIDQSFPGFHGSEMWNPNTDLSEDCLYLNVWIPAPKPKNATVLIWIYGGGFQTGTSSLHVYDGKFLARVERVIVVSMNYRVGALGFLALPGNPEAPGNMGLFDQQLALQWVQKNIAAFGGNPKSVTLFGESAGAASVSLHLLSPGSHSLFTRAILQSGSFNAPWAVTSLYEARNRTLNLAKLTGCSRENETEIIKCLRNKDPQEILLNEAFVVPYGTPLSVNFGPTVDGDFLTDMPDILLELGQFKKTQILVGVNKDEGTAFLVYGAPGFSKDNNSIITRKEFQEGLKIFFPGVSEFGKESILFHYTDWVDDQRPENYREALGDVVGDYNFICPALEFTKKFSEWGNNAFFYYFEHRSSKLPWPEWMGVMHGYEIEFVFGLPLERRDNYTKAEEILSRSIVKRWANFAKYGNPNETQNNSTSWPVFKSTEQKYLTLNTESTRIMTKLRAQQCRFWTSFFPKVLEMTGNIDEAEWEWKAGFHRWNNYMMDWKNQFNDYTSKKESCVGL

[19] = target: Polyunsaturated fatty acid 5-lipoxygenase (Homo sapiens, UniProt P09917); test: Inhibition of 5-lipoxygenase (unknown origin) incubated for 10 mins
Chain of Polyunsaturated fatty acid 5-lipoxygenase (P09917 whole entry): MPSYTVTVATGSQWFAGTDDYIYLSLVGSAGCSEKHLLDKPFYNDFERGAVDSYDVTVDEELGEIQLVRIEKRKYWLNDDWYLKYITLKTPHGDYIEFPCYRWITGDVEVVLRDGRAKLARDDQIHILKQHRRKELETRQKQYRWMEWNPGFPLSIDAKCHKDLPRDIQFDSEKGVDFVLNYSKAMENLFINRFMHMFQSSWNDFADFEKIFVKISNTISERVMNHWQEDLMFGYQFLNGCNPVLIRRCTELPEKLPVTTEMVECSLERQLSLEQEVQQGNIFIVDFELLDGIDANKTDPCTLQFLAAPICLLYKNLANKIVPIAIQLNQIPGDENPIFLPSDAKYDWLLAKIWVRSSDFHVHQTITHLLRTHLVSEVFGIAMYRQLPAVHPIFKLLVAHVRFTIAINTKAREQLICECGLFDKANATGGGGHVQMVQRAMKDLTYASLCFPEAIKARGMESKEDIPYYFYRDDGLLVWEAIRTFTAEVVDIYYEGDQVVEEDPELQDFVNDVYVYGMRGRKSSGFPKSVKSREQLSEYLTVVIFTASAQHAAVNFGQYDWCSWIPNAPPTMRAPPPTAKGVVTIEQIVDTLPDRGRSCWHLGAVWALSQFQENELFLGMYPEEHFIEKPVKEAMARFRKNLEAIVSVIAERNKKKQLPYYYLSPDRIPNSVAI

[20] = target: Tyrosinase (Homo sapiens) (UniProt P14679); test: Inhibition of tyrosinase (unknown origin) using L-DOPA as substrate preincubated with substrate for 2 mins followed by enzyme addition and measured after 10 min by spectrophotometric method relative to control
Chain of Tyrosinase (Homo sapiens) (P14679 whole entry): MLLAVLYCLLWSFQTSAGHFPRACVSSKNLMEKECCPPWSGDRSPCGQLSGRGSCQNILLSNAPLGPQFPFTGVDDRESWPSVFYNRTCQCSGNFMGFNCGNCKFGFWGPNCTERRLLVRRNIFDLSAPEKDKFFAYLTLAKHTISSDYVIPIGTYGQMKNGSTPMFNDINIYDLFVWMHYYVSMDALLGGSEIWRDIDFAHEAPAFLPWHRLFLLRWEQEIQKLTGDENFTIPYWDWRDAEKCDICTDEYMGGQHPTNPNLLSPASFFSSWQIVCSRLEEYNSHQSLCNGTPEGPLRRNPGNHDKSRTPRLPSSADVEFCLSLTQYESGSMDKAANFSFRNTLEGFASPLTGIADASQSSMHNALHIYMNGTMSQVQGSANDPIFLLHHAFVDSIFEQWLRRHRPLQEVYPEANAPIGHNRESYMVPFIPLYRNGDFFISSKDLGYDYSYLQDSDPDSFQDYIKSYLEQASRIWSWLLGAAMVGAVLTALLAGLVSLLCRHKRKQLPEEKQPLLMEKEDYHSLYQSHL

MCF7 [21] = test: Cytotoxicity against human MCF7 cells incubated up to 48 hrs by MTT assay; format: functional, cell-based; details: MCF7, 48 h
Leishmania major = test: Antileishmanial activity against Leishmania major 5-ASKH promastigotes incubated for 72 hrs by hemocytometer based cell counting method; format: functional, organism-based
[22] = Inhibition of quorum sensing system in Pseudomonas aeruginosa MH602 PlasB::gfp-ASV at 250 uM measured every 30 minutes over 20 hrs by fluorescence analysis relative to control
Urease = Urease (Canavalia ensiformis, UniProt P07374); test: Inhibition of jack bean urease assessed as reduction in ammonia production by Berthelot colorimetric method
[23] = target: Dihydroorotate dehydrogenase (quinone), mitochondrial (Homo sapiens, UniProt Q02127); test: Inhibition of human recombinant N-terminal His-tagged DHODH (31 to 395 residues) expressed in Escherichia coli using dihydroorotate substrate preincubated for 5 mins followed by substrate addition by DCIP assay
Alpha glucosidase = Alpha glucosidase (Homo sapiens, UniProt O43451+P10253+P14410+Q2M2H8); test: Inhibition of alpha-glucosidase (unknown origin) using p-nitrophenyl-alpha-D-glucopyranoside as substrate pre-incubated for 15 mins followed by substrate addition and measured for 20 mins by spectrophotometric analysis; format: protein assay
Staphylococcus aureus = test: Antimicrobial activity against Staphylococcus aureus NCIM 5022 incubated for 36 hrs by agar well diffusion method; format: functional
Escherichia coli [24] = test: Antimicrobial activity against Escherichia coli NCIM 5051 incubated for 36 hrs by agar well diffusion method; format: functional
[25] = Antioxidant activity assessed as inhibition of DPPH radical generation; format: functional
SNB-19 [26] = test: Potency index, ratio of cisplatin IC50 to compound IC50 for cytotoxicity against human SNB19 cells; format: functional
SNB-19 [27] = test: Cytotoxicity against human SNB19 cells after 72 hrs by WST-1 assay; format: functional, cell-based; details: SNB-19, 72 h
HeLa [28] = test: Induction of cell cycle arrest in human HeLa cells assessed as accumulation at subG1 phase by flow cytometry relative to control; format: functional
A549 [29] = test: Induction of cell cycle arrest in human A549 cells assessed as accumulation at subG1 phase by flow cytometry relative to control; format: functional
HeLa [30] = test: Cytotoxicity against human HeLa cells incubated for 24 hrs by MTT assay; format: functional, cell-based
A549 [31] = test: Cytotoxicity against human A549 cells incubated for 24 hrs by MTT assay; format: functional, cell-based; details: A549, 24 h
Acetylcholinesterase = Acetylcholinesterase (Electrophorus electricus, UniProt O42275); test: Inhibition of electric eel AChE using acetylthiocholine iodide as substrate preincubated for 3 mins followed by substrate addition by Ellman's method
Cholinesterase [32] = target: Cholinesterase (Equus caballus, UniProt P81908); test: Inhibition of equine serum BuChE using butyrylthiocholine iodide as substrate preincubated for 3 mins followed by substrate addition by Ellman's method
Chain of Cholinesterase (Equus caballus, UniProt P81908) (P81908 whole entry): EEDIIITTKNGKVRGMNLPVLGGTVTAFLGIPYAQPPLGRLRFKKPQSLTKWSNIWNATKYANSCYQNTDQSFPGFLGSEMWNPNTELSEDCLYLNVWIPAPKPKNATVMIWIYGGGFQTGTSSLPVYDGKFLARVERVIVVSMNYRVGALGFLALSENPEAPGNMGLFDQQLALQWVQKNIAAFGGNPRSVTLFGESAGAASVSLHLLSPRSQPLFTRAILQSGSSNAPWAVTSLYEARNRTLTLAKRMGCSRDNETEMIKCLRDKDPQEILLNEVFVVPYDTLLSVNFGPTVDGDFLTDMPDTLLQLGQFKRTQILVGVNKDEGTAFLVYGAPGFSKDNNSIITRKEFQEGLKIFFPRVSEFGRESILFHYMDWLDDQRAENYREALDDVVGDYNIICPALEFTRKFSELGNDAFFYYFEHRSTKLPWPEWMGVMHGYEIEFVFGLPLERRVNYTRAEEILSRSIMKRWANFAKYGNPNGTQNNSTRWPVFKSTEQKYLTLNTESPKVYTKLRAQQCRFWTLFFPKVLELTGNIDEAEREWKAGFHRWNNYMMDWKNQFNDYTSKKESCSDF

HT-29 [33] = test: Potency index, ratio of cisplatin IC50 to compound IC50 for cytotoxicity against human HT-29 cells; format: functional
HT-29 [34] = test: Cytotoxicity against human HT-29 cells after 72 hrs by SRB assay; format: functional, cell-based; details: HT-29, 72 h
Escherichia coli [35] = test: Antimicrobial activity against Escherichia coli […]; format: functional

CCc1ccc(-n2cc(CNC(=O)C(=O)c3cc4ccccc4[nH]3)nn2)cc1
IC50 (DU-145): 8.17 µM | IC50 [1]: 0.12 µM | IC50 [2]: 7.73 µM | Activity (Rattus norvegicus): 76.9%

COc1ccc(-n2nnc3c2CCC2(C=Cc4cc(C)ccc4O2)C3)cc1 (centres undefined)
MIC [3]: 4.34 µM (≈ 1.56 µg/mL)

COc1c(O)cc(O)c2c(=O)cc(-c3ccccc3)oc12 [WOGONIN]
IC50 (MCF7 [4]): 30 µM

O=C(Cn1cc(CSc2ccc(Br)cc2)nn1)OCc1ccc(Cl)cc1
MIC (Escherichia coli [5]): 15.3 µM (≈ 6.93 µg/mL) | MIC (Candida albicans): 15.3 µM (≈ 6.93 µg/mL) | MIC [6]: 15.3 µM (≈ 6.93 µg/mL) | MIC (Pseudomonas aeruginosa): 15.3 µM (≈ 6.93 µg/mL) | MIC (Bacillus subtilis): 15.3 µM (≈ 6.93 µg/mL)

O=C1CCC(N2C(=O)c3cccc(NC(=O)CCCCCCCn4cc(COc5c(O)cc(O)c6c(=O)cc(-c7ccccc7)oc56)nn4)c3C2=O)C(=O)N1 (centres undefined)
IC50 (MCF7 [4]): 17 µM

COc1cc(Cn2cc(C(=O)c3c(-c4ccccc4)nc4ccccn34)nn2)cc(OC)c1OC
IC50 (A549 [7]): 0.51 µM | IC50 (DU-145): 1.04 µM

O=C(CCNC(=O)c1ccc(CO)cc1)N[C@@H](Cc1cnnn1CCCCCCCCc1ccccc1)C(=O)NCc1cnnn1CCP(=O)(O)O
IC50 [8]: 3.37 µM

Cc1ccc2c(c1)C=CC1(CCc3c(nnn3-c3ccccc3)C1)O2 (centres undefined)
MIC [3]: 4.74 µM (≈ 1.56 µg/mL)

O=C(Nc1ccc(Oc2ncnc3ccsc23)c(F)c1)c1nnn(-c2ccc(Cl)cc2)c1C(F)(F)F
Ratio IC50 (HepG2 [9]): 3.7 - 5.4 | IC50 [10]: 0.016 µM | Ratio IC50 (MCF7 [11]): 3.7 - 5.4 | IC50 (MCF7 [4]): 1.1 µM | IC50 (HepG2 [12]): 0.5 µM | IC50 (A549 [13]): 0.9 µM | Ratio IC50 (A549 [14]): 3.7 - 5.4

O=c1c2ccccc2nc(SCc2cn(Cc3ccc(Br)cc3)nn2)n1CCc1ccccc1
Ki [15]: 117 µM

Cc1cc(O)cc2oc(=O)cc(CNCc3cn(-c4ccc(Br)cc4)nn3)c12
IC50 (U-937 [16]): 8.01 µM | inhibition at 10 µM (U-937 [17]): 62%

COc1ccc(-n2nnc3c2CCC2(C=Cc4cc(Cl)ccc4O2)C3)cc1 (centres undefined)
MIC [3]: 4.11 µM (≈ 1.56 µg/mL)

O=c1oc2ccccc2c2c1cnn2Cc1cn(-c2c(Cl)cc(Cl)cc2Cl)nn1
IC50 (Cholinesterase [18]): 18 µM | IC50 [19]: 21 µM | inhibition [20]: 72%

O=C1C(=O)N(CCn2cc(COCCOc3ccc(/C(=C(/CCCl)c4ccccc4)c4ccccc4)cc3)nn2)c2c(Br)cc(Br)cc21
IC50 (MCF7 [21]): 1.56 µM

COC(=O)[C@H](CC(C)C)NC(=O)c1cn(-c2ccccc2N)nn1
IC50 (Leishmania major): 11 µg/mL (≈ 33.2 µM)

CCc1ccc(-n2cc(CCC(=O)Nc3c(-c4ccccc4)[nH]c4ccccc34)nn2)cc1
inhibition [22]: 60.8%

COc1ccc(NC(=O)NCc2cn(Cc3ccc(Cl)cc3Cl)nn2)cc1
IC50 (Urease): 22.8 µM

NC(=O)c1cc(F)c(F)cc1-n1cc(COc2ccc(C(F)(F)F)cc2)nn1
IC50 [23]: 2.1 µM

COc1ccc(-c2ccc(O[C@H](C)Cn3cc(-c4ccc(C(F)(F)F)cc4)nn3)c(OC)c2)cc1
IC50 (Alpha glucosidase): 14.2 µM

Fc1cccc(Cl)c1Cn1nncc1CN1CCN(C(c2ccccc2)c2ccccc2)CC1
diameter of the inhibition zone (DIZ) (Staphylococcus aureus): 16.33 mm | diameter of the inhibition zone (DIZ) (Escherichia coli [24]): 15.63 mm

Cn1c(=O)c2c3cc(F)ccc3c(=O)n(Cc3cn(Cc4ccccc4)nn3)c2n(C)c1=O
IC50 [25]: 6.02 µM

O=C(Cn1cc(CSc2ccc(Cl)cc2)nn1)OCc1ccc(Cl)cc1
MIC (Escherichia coli [5]): 13.8 µM (≈ 5.63 µg/mL) | MIC (Candida albicans): 13.8 µM (≈ 5.63 µg/mL) | MIC [6]: 13.8 µM (≈ 5.63 µg/mL) | MIC (Pseudomonas aeruginosa): 13.8 µM (≈ 5.63 µg/mL)

C=C(C)[C@@H]1CC[C@]2(COC(=O)c3cn([C@H]4C[C@H](n5cc(C)c(=O)[nH]c5=O)O[C@@H]4CO)nn3)CC[C@]3(C)[C@H](CC[C@@H]4[C@@]5(C)CCC(=O)C(C)(C)[C@@H]5CC[C@]43C)[C@@H]12
Ratio IC50 (SNB-19 [26]): 5 | IC50 (SNB-19 [27]): 0.17 µM

O=c1oc2ccccc2c2nn(Cc3cn(-c4c(Cl)cc(Cl)cc4Cl)nn3)cc12
IC50 (Cholinesterase [18]): 29 µM | IC50 [19]: 24 µM | inhibition [20]: 58%

COc1cc(-c2cc(COc3ccccc3-c3nc4ccccc4o3)on2)ccc1OCc1cn(CC(=O)NCc2ccco2)nn1
Activity (HeLa [28]): 42.58% | Activity (A549 [29]): 49.43% | IC50 (HeLa [30]): 1.77 µM | IC50 (A549 [31]): 2.59 µM

O=C(CCCCC1CCSS1)NCc1cn(CCCCOc2ccc(-c3cc4c(ccc5ccccc54)oc3=O)cc2)nn1 (centres undefined)
IC50 (Acetylcholinesterase): 7.3 µM | IC50 (Cholinesterase [32]): 68.6 µM

C=C[C@H]1CN2CC[C@H]1C[C@H]2[C@H](O)c1cc(-c2cn(-c3ccc(O)cc3)nn2)nc2ccc(OC)cc12
Ratio IC50 (HT-29 [33]): 8 | IC50 (HT-29 [34]): 1.21 µM

Clc1ccc(Cn2nncc2CN2CCN(C(c3ccccc3)c3ccccc3)CC2)c(Cl)c1
diameter of the inhibition zone (DIZ) (Staphylococcus aureus): 16.45 mm | diameter of the inhibition zone (DIZ) (Escherichia coli [24]): 16.15 mm

Cc1cc(O)c(C(=O)/C=C/c2ccc(OCc3cn(Cc4ccc(Br)cc4)nn3)cc2)c(=O)o1
MIC (Escherichia coli [35]): 3 µM (≈ 1.57 µg/mL)
